Assay results from US9113629B2, “4-amino-6-(4-substituted-phenyl)-picolinates and 6-amino-2-(4-substituted-phenyl)-pyrimidine-4-carboxylates and their use as herbicides” (DOW AGROSCIENCES LLC, priority 2013, dated 2015).
Like-named read-outs stand apart in the source and are kept apart here.

Tests used:
[1] = test system: Key Grass and Sedge Weeds as well as Grass Crops; experiment: Post-emergent Test II herbicidal activity (Table 6); type: in vivo; details: post-emergence, 336 h; for pest or weed control at 70 g/ha: application rate 70 g ai/ha; for pest or weed control at 140 g/ha: application rate 140 g ai/ha
Method in brief: (§1)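 Post-emergence foliar spray, 187 L/ha, track sprayer at 43 cm above canopy. Carrier: acetone/water/IPA/DMSO/Atplus 411F/Triton X-155. Plants at 1st–2nd true leaf; subirrigated afterwards; % injury scored visually at 14 d.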

[2] = test system: Key Broadleaf Weed and Crop Species; experiment: Post-emergent Test II herbicidal activity (Table 5); type: in vivo; details: post-emergence, 336 h, post-emergent, 14 days after application; for pest or weed control at 70 g/ha: 70 g ai/ha; for pest or weed control at 140 g/ha: 140 g ai/ha
Method in brief: as §1

[3] = Triticum aestivum, TRZSS (wheat), read-out: Visual Growth Reduction (%) 14 Days After Application, TRZSS
[4] = CYPES: yellow nutsedge (Cyperus esculentus), read-out: Visual Growth Reduction (%) 14 Days After Application, CYPES
[5] = DIGSA: crabgrass (Digitaria sanguinalis), read-out: Visual Growth Reduction (%) 14 Days After Application, DIGSA
[6] = ECHCG: barnyardgrass (Echinochloa crus-galli), read-out: Visual Growth Reduction (%) 14 Days After Application, ECHCG
[7] = ORYSA: rice (Oryza sativa), read-out: Visual Growth Reduction (%) 14 Days After Application, ORYSA
[8] = SETFA: giant foxtail (Setaria faberi), read-out: Visual Growth Reduction (%) 14 Days After Application, SETFA
[9] = SORVU: grain sorghum (Sorghum vulgare), read-out: Visual Growth Reduction (%) 14 Days After Application, SORVU
[10] = ZEAMX: maize, corn (Zea mays), read-out: Visual Growth Reduction (%) 14 Days After Application, ZEAMX
[11] = ABUTH: velvetleaf (Abutilon theophrasti), read-out: Visual Growth Reduction (%) 14 Days After Application ABUTH
[12] = AMARE: redroot pigweed (Amaranthus retroflexus), read-out: Visual Growth Reduction (%) 14 Days After Application AMARE
[13] = BRSNN: oilseed-rape, canola (Brassica napus), read-out: Visual Growth Reduction (%) 14 Days After Application BRSNN
[14] = CHEAL: lambsquarters (Chenopodium album), read-out: Visual Growth Reduction (%) 14 Days After Application CHEAL
[15] = EPHHL: wild poinsettia (Euphorbia heterophylla), read-out: Visual Growth Reduction (%) 14 Days After Application EPHHL
[16] = HELAN: sunflower (Helianthus annuus), read-out: Visual Growth Reduction (%) 14 Days After Application HELAN
[17] = VIOTR: wild pansy (Viola tricolor), read-out: Visual Growth Reduction (%) 14 Days After Application VIOTR

COC(=O)c1nc(-c2ccc(C#N)cc2)c(C)c(N)c1Cl [Compound 83, Methyl 4-amino-3-chloro-6-(4-cyanophenyl)-5-methylpicolinate]
30 to 44%: pest or weed control at 140 g/ha [2, 11]
0 to 29%: pest or weed control at 70 g/ha [1, 3] | pest or weed control at 140 g/ha [1, 3] | pest or weed control at 70 g/ha [1, 4] | pest or weed control at 140 g/ha [1, 4] | pest or weed control at 70 g/ha [1, 5] | pest or weed control at 140 g/ha [1, 5] | pest or weed control at 70 g/ha [1, 6] | pest or weed control at 140 g/ha [1, 6] | pest or weed control at 70 g/ha [1, 7] | pest or weed control at 140 g/ha [1, 7] | pest or weed control at 70 g/ha [1, 8] | pest or weed control at 140 g/ha [1, 8] | pest or weed control at 70 g/ha [1, 9] | pest or weed control at 140 g/ha [1, 9] | pest or weed control at 70 g/ha [1, 10] | pest or weed control at 140 g/ha [1, 10] | pest or weed control at 70 g/ha [2, 11] | pest or weed control at 70 g/ha [2, 12] | pest or weed control at 140 g/ha [2, 12] | pest or weed control at 70 g/ha [2, 13] | pest or weed control at 140 g/ha [2, 13] | pest or weed control at 70 g/ha [2, 14] | pest or weed control at 140 g/ha [2, 14] | pest or weed control at 70 g/ha [2, 15] | pest or weed control at 140 g/ha [2, 15] | pest or weed control at 70 g/ha [2, 17] | pest or weed control at 140 g/ha [2, 17]
145 to 148 °C: melting point
85 to 94%: pest or weed control at 70 g/ha [2, 16] | pest or weed control at 140 g/ha [2, 16]

C=Cc1c(C(=O)OC)nc(-c2ccc(Br)cc2)c(F)c1N [Compound 57, methyl 4-amino-6-(4-bromophenyl)-5-fluoro-3-vinylpicolinate]
60 to 74%: pest or weed control at 70 g/ha [2, 13]
95 to 100%: pest or weed control at 70 g/ha [1, 4] | pest or weed control at 140 g/ha [1, 4] | pest or weed control at 140 g/ha [1, 9] | pest or weed control at 140 g/ha [2, 12]
93 to 94 °C: melting point
0 to 29%: pest or weed control at 70 g/ha [1, 3] | pest or weed control at 140 g/ha [1, 3] | pest or weed control at 70 g/ha [1, 5] | pest or weed control at 140 g/ha [1, 5] | pest or weed control at 70 g/ha [1, 6] | pest or weed control at 140 g/ha [1, 6] | pest or weed control at 70 g/ha [1, 7] | pest or weed control at 140 g/ha [1, 7] | pest or weed control at 70 g/ha [1, 8] | pest or weed control at 140 g/ha [1, 8] | pest or weed control at 70 g/ha [1, 10] | pest or weed control at 140 g/ha [1, 10] | pest or weed control at 70 g/ha [2, 17] | pest or weed control at 140 g/ha [2, 17]
85 to 94%: pest or weed control at 70 g/ha [2, 11] | pest or weed control at 140 g/ha [2, 11] | pest or weed control at 70 g/ha [2, 12] | pest or weed control at 70 g/ha [2, 14] | pest or weed control at 140 g/ha [2, 14] | pest or weed control at 70 g/ha [2, 15] | pest or weed control at 140 g/ha [2, 15] | pest or weed control at 70 g/ha [2, 16] | pest or weed control at 140 g/ha [2, 16]
75 to 84%: pest or weed control at 70 g/ha [1, 9] | pest or weed control at 140 g/ha [2, 13]

COC(=O)c1nc(-c2cc(F)c(I)cc2F)nc(N)c1OC [Compound 101]
60 to 74%: pest or weed control at 140 g/ha [1, 5] | pest or weed control at 140 g/ha [1, 8] | pest or weed control at 70 g/ha [1, 10] | pest or weed control at 140 g/ha [1, 10]
30 to 44%: pest or weed control at 70 g/ha [1, 3] | pest or weed control at 140 g/ha [1, 3] | pest or weed control at 70 g/ha [1, 9]
95 to 100%: pest or weed control at 70 g/ha [2, 13] | pest or weed control at 140 g/ha [2, 13] | pest or weed control at 70 g/ha [2, 15] | pest or weed control at 140 g/ha [2, 15]
85 to 94%: pest or weed control at 140 g/ha [1, 6] | pest or weed control at 70 g/ha [2, 11] | pest or weed control at 140 g/ha [2, 11] | pest or weed control at 70 g/ha [2, 12] | pest or weed control at 140 g/ha [2, 12] | pest or weed control at 70 g/ha [2, 14] | pest or weed control at 140 g/ha [2, 14] | pest or weed control at 70 g/ha [2, 16] | pest or weed control at 140 g/ha [2, 16]
193 to 194 °C: melting point
45 to 59%: pest or weed control at 70 g/ha [1, 4] | pest or weed control at 140 g/ha [1, 4] | pest or weed control at 70 g/ha [1, 5] | pest or weed control at 140 g/ha [1, 9]
0 to 29%: pest or weed control at 70 g/ha [1, 6] | pest or weed control at 70 g/ha [1, 7] | pest or weed control at 140 g/ha [1, 7] | pest or weed control at 70 g/ha [1, 8] | pest or weed control at 70 g/ha [2, 17] | pest or weed control at 140 g/ha [2, 17]
